The values that follow come from patent US20210236512A1 (ZARODEX THERAPEUTICS LIMITED, priority 2018, published 2021).

For data set [1] the following is noted: in vivo; cited from earlier work.
Data set [2] concerns total peripheral blood B-cells isolated from healthy donors. It is filed as cell-based, human. The conditions noted are these: clozapine 25-350 ng/ml, norclozapine 15-200 ng/ml, haloperidol 2-25 ng/ml; for Ability of differentiated ASCs to secrete antibody (total IgM/IgG ELISA): day 6 and day 9. The method, then: The experiment was performed from four independent donors.
Data set [3] concerns B cell subsets in bone marrow. The data set is described as follows: Wild type mouse study: bone marrow B cell immunophenotyping by flow cytometry. The conditions noted are these: haloperidol 1 mg/kg IP, 21 days.
In data set [4] the test system is B cell subsets and T cells in spleen. The data set is described as follows: Wild type mouse study: spleen immunophenotyping by flow cytometry. Particulars: haloperidol 1 mg/kg.

Molecules are shown by their SMILES.

`O=C(CCCN1CCC(O)(c2ccc(Cl)cc2)CC1)c1ccc(F)cc1` [Haloperidol, haloperidol]: the 50% lethal dose (LD50) in data set [1] was 30 mg/kg. Moreover, in data set [2], the “Functional or phenotypic maturation of activated B cells to an early PC state” value is listed as “no consistent inhibitory effect” and the “Ability of differentiated ASCs to secrete antibody (total IgM/IgG ELISA)” value is listed as “no consistent effect”. Further, in data set [3], the “Early developing B cell subsets in bone marrow (overall B, pre-pro B, pro-B)” value was “no significant effect” and the “Effect on long-lived plasma cells in the bone marrow” value was “no effect”. In addition, in data set [4], the “Reduction of activated T cells (B220+TCR-b+) in spleen” value is recorded as “modestly apparent”. The “Impact on B cell subpopulations” value in data set [4] (comparator) is reported as “not observed”.

On to `Clc1ccc2c(c1)N=C(N1CCNCC1)c1ccccc1N2` [norclozapine], for which, in data set [2], the “Functional or phenotypic maturation of activated B cells to an early PC state” value is “no consistent inhibitory effect” and the “Ability of differentiated ASCs to secrete antibody (total IgM/IgG ELISA)” value is on record as “no consistent effect”.
